Source: patent US7867492B2, “Compounds for hedgehog pathway blockade in proliferative disorders, including hematopoietic malignancies” (The John Hopkins University, priority 2007, dated 2011)

What was measured:
K-ras pathway = format: cell-based
Hh pathway [1] = format: cell-based
Hh pathway [2] = experiment: ATO combined with cyclopamine, 8×Gli-luciferase reporter in 3T3 cells; format: cell-based; conditions: cyclopamine at fixed concentrations of […] and 0.125 μM, presence of ShhN
Wnt pathway = experiment: Wnt reporter (7×TCF/LEF-luciferase) in 3T3 cells; format: cell-based; conditions: increasing concentrations, presence or absence of Wnt3a-conditioned medium
Description: 3T3 cells were transfected with a Wnt reporter (7×TCF/LEF-luciferase) and treated with increasing concentrations of ATO in the presence or absence of Wnt3a-conditioned medium.
To further assess the specificity of the arsenic effect on Hedgehog pathway signaling, 3T3 cells were transfected with a Wnt reporter (7×TCF/LEF-luciferase) and treated with increasing concentrations of ATO in the presence or absence of Wnt3a-conditioned medium.

Gli = experiment: Hh reporter in 3T3 cells cotransfected with SmoA1, Gli2 or Gli1; format: cell-based; conditions: presence or absence of ShhN
[3] = test system: medulloblastoma from Ptch+/−p53−/− mice; experiment: Hh activity-induced medulloblastoma allografts in athymic nude mice; format: in vivo; conditions: daily intraperitoneal injection
Description: FIG. 7 is a pictorial and a graphical diagram showing that ATO inhibits growth of Hh activity-induced medulloblastoma allografts in nude mice. Primary medulloblastoma from Ptch+/−p53−/− mice were dissected and injected into athymic nude mice. The mice were injected daily with either control PBS or 3 different doses of ATO intraperitoneally.
The activity of ATO was then tested in vivo in a well-established model of a tumor that is dependent on Hh pathway activity for growth. In this model, primary medulloblastoma cells from Ptch+/−p53−/− mice were dissected and injected into athymic nude mice. The mice were then injected daily with either control PBS or 3 different doses of ATO intra-peritoneally.

Row | Compound | K-ras pathway activity (SRE-luciferase reporter) (K-ras pathway) | Hh signaling (reporter) (Hh pathway [1]) | Effect of ATO on Hh pathway when combined with cyclopamine (Hh pathway [2]) | Wnt pathway activity (7×TCF/LEF-luciferase reporter) (Wnt pathway) | Hh reporter activity induced by SmoA1, Gli2 or Gli1 over-expression (Gli) | Hh pathway activity (8×Gli-luciferase reporter) (Hh pathway [1]; NIH3T3 cells, increasing concentrations, presence or absence of ShhN-conditioned medium) | Tumor allograft growth ([3]; 3 different doses, athymic nude mice) | Tumor allograft growth at the highest concentration tested ([3]; highest concentration tested)
1 | O=[As][O-].[Na+] [NaAsO2] | did not inhibit, and in fact stimulated the K-ras pathway | inhibits Hh signaling | – | – | – | – | – | –
2 | arsenic trioxide [ATO] | – | – | significantly improved effect of ATO at lower concentrations | does not inhibit the Wnt pathway | dramatically inhibited reporter activity | inhibits Hh pathway in a dose-dependent manner | suppressed tumor allograft growth in a concentration dependent manner | complete growth suppression
